Emax and EC50 data for 15 compounds are collected here from patent US10245264B2, “Substituted imidazo[1,2-a]pyrazines as soluble guanylate cyclase activators” (Merck Sharp & Dohme Corp., priority 2015, dated 2019).

Each structure is given as a SMILES string.

This test concerns the target T1, sGC α1/β1 heterodimer stably expressed in CHO-K1 cells (CHO-K1/sGC) (Homo sapiens, UniProt Q02108+Q02153).
T1 construct: expressed in transfected cells
T1 sequence (Q02108 1-690): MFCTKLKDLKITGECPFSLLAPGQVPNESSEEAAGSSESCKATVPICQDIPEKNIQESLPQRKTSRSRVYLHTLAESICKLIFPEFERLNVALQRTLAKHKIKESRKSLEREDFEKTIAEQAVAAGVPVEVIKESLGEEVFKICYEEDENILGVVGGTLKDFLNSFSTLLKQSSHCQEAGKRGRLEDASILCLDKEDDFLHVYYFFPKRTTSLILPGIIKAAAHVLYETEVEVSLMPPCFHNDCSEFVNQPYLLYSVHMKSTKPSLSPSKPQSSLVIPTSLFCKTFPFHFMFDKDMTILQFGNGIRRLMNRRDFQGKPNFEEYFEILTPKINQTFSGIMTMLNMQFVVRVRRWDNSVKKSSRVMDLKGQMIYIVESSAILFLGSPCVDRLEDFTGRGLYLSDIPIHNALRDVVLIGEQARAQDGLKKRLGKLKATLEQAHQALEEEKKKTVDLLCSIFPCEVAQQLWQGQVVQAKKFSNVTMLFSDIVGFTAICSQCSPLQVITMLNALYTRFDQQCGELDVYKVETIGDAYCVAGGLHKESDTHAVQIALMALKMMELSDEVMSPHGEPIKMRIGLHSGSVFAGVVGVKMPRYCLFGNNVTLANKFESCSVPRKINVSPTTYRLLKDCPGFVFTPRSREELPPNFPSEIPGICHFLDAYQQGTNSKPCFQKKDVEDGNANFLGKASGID
T1 sequence (Q02153 1-619): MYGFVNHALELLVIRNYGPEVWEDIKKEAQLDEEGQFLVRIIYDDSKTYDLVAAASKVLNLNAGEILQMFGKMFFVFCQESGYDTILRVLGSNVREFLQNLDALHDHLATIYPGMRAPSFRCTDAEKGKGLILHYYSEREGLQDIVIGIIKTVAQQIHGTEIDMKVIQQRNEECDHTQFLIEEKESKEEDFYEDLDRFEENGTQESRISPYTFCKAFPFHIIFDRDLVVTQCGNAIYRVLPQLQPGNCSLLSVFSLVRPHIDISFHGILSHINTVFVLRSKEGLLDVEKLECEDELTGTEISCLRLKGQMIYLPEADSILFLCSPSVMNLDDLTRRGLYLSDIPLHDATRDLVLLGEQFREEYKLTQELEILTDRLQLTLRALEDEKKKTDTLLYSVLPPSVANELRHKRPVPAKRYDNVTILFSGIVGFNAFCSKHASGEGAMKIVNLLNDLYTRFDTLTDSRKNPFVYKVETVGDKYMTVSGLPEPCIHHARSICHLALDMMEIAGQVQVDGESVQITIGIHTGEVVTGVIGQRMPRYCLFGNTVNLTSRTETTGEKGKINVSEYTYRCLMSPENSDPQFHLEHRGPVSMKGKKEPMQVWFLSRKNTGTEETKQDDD
In words: Cell-based sGC functional assay (CASA assay), cGMP generation by HTRF. The following applies: for Emax: CHO-K1, maximum cGMP production of Compound A set to 100% activation, read-out: % Act. (percent activation relative to Compound A); for EC50: CHO-K1/sGC cells, 1 hr at 37° C., 4P fit, presence or absence of DETA-NO not given, read-out: IP (nM) (inflection point). The text has this:
Biological Assay 1: Cell-Based sGC Functional Assay (CASA Assay) Rationale
sGC is a heme-containing enzyme that converts GTP to secondary messenger cGMP. Increases in cGMP levels affect several physiological processes including vasorelaxation through multiple downstream pathways. […] Heme-dependent activators (HDAs) preferentially activate sGC containing a ferrous heme group. To determine the effect of sGC activators on enzyme activity, the CASA assay was developed to monitor the generation of cGMP in a cell line that stably expresses the heterodimeric sGC protein.
A CHO-K1 cell line stably expressing the sGC α1/β1 heterodimer was generated using a standard transfection protocol. CHO-K1 cells were transfected with plasmids pIREShyghsGCα1 and pIRESneo-hsGCβ1 simultaneously using FUGENE reagent. Clones that stably express both subunits were selected with hygromycin and neomycin for ˜2 weeks. Clone #7 was chosen for the assay and was designated CHO-K1/sGC. CHO-K1/sGC cells were maintained in F-K12 medium containing 10% heat-inactivated Fetal Bovine Serum (FBS), 100 μg/mL penicillin/streptomycin, 0.5 mg/mL hygromycin and 0.25 mg/mL G418. The cells were then cryopreserved in LN2. On the day of the assay, cells were thawed and resuspended in EBSS Assay Buffer (Sigma, E3024) supplemented with 5 mM MgCl2, 10 mM HEPES (4-(2-hydroxyethyl)piperazine-1-ethanesulfonic acid) and 0.05% BSA (bovine serum albumin) (EAB) and cell density was then adjusted to 4×10^5/mL with EAB. IBMX (3-isobutyl-1-methylxanthin, 0.5 mM) was added to inhibit degradation of cGMP. Compounds were diluted from DMSO stock solutions and added to the assay at a final DMSO concentration of 2.5%. Cells were incubated with compounds in the presence and absence of 1 μM of Diethylenetriamine/nitric oxide adduct (DETA-NO; Sigma, 17018) for 1 hr at 37° C. At the end of the incubation period, the reaction was terminated and the cells were lysed with the detection reagents from Cisbio Kits. The level of intracellular cGMP was determined using an HTRF-based assay kit (CisBio, 62GM2PEC), which detects the displacement of a fluorescence labeled cGMP from its specific antibody. The cGMP produced by test compounds was directly compared to the maximum cGMP production (this value was set to equal 100% activation.) of the published sGC-HDA Compound A:
[drawing 101] (Example 1 in WO 2010/065275, published Jun. 10, 2010). The test compounds' activities were then expressed as a percentage of Compound A, the standard in every experiment. This percent activation was calculated either in the presence or absence of DETA-NO which was then plotted. IP and maximum fold induction was derived using ADA analysis software for 4P fit.
The compounds in the Examples of the instant invention had inflection points (IP) less than or equal to 10 μM and many had IPs less than or equal to about 1 μM.
In general terms: TR-FRET usually uses a lanthanide donor and a delayed reading to cut background.

Take `CC1(c2ccc(F)cc2)C(=O)Nc2nc(-c3cn4ccnc4c(Oc4ccc(F)c(F)c4F)n3)nc(N)c21` (stereo not drawn) [Example 16A, 4-amino-5-(4-fluorophenyl)-5-methyl-2-[8-(2,3,4-trifluorophenoxy)imidazo[1,2-a]pyrazin-6-yl]-5,7-dihydro-6H-pyrrolo [2,3-d]pyrimidin-6-one]: the Emax came to 89% and the EC50 worked out at 37 nM.
On the same counts, the results for `CC1(c2ccc(F)cc2)C(=O)Nc2nc(-c3cn4ccnc4c(Oc4cc(F)cc(F)c4F)n3)nc(N)c21` (stereo not drawn) [Example 17A, 4-amino-5-(4-fluorophenyl)-5-methyl-2-[8-(2,3,5-trifluorophenoxy)imidazo[1,2-a]pyrazin-6-yl]-5,7-dihydro-6H-pyrrolo [2,3-d]pyrimidin-6-one] are 100% and 17 nM.
On the same counts, the results for `CC1(c2ccc(F)cc2)C(=O)Nc2nc(-c3cn4ccnc4c(Oc4ccc(F)c(F)c4)n3)nc(N)c21` (stereo not drawn) [Example 18A, 4-amino-2-[8-(3,4-difluorophenoxy)imidazo[1,2-a]pyrazin-6-yl]-5-(4-fluorophenyl)-5-methyl-5,7-dihydro-6H-pyrrolo[2,3-d] pyrimidin-6-one] are 98% and 10 nM.
On the same counts, the results for `CC1(c2ccc(F)cc2)C(=O)Nc2nc(-c3cn4ccnc4c(Oc4ccc(F)cc4F)n3)nc(N)c21` (stereo not drawn) [Example 19A, 4-amino-2-[8-(2,4-difluorophenoxy)imidazo[1,2-a]pyrazin-6-yl]-5-(4-fluorophenyl)-5-methyl-5,7-dihydro-6H-pyrrolo[2,3-d] pyrimidin-6-one] are 109% and 74 nM.
Regarding `CC1(c2ccc(F)cc2)C(=O)Nc2nc(-c3cn4ccnc4c(Oc4ccc(F)cc4)n3)nc(N)c21` (stereo not drawn) [Example 20A, 4-amino-2-[8-(4-fluorophenoxy)imidazo[1,2-a]pyrazin-6-yl]-5-(4-fluorophenyl)-5-methyl-5,7-dihydro-6H-pyrrolo[2,3-d] pyrimidin-6-one], the Emax stood at 109% and the EC50 was 42 nM.
On the same counts, the results for `CC1(c2ccc(F)cc2)C(=O)Nc2nc(-c3cn4ccnc4c(Oc4cncc(C(F)(F)F)c4)n3)nc(N)c21` (stereo not drawn) [Example 21A, 4-amino-5-(4-fluorophenyl)-5-methyl-2-(8-{[5-(trifluoromethyl)pyridin-3-yl]oxy}imidazo[1,2-a]pyrazin-6-yl)-5,7-dihydro-6H-pyrrolo[2,3-d] pyrimidin-6-one] are 137% and 1060 nM.
On the same counts, the results for `CC1(c2ccc(F)cc2)C(=O)Nc2nc(-c3cn4ccnc4c(OC4CCCCC4)n3)nc(N)c21` (stereo not drawn) [Example 22A, 4-amino-2-[8-(cyclohexyloxy)imidazo[1,2-a]pyrazin-6-yl]-5-(4-fluorophenyl)-5-methyl-5,7-dihydro-6H-pyrrolo[2,3-d] pyrimidin-6-one] are 107% and 171 nM.
As to `CC1(c2ccc(F)cc2)C(=O)Nc2nc(-c3cn4ccnc4c(Oc4cc(F)cc(F)c4)n3)nc(N)c21` (stereo not drawn) [Example 23A, 4-amino-2-[8-(3,5-difluorophenoxy)imidazo[1,2-a]pyrazin-6-yl]-5-(4-fluorophenyl)-5-methyl-5,7-dihydro-6H-pyrrolo[2,3-d] pyrimidin-6-one], the Emax came to 100% and the EC50 is 16 nM.
In the same order, the values of `CC1(C)C(=O)Nc2nc(-c3cn4ccnc4c(Oc4cc(F)cc(F)c4)n3)nc(N)c21` [Example 24, 4-amino-2-[8-(3,5-difluorophenoxy)imidazo[1,2-a]pyrazin-6-yl]-5,5-dimethyl-5,7-dihydro-6H-pyrrolo[2,3-d] pyrimidin-6-one] are 89% and 238 nM.
On the same counts, the results for `CC1(c2ccc(F)cc2)C(=O)Nc2nc(-c3cn4ccnc4c(Oc4cc(F)ccc4F)n3)nc(N)c21` (stereo not drawn) [Example 25A, 4-amino-2-[8-(2,5-difluorophenoxy)imidazo[1,2-a]pyrazin-6-yl]-5-(4-fluorophenyl)-5-methyl-5,7-dihydro-6H-pyrrolo[2,3-d] pyrimidin-6-one] are 97% and 32 nM.
In the same order, the values of `CC1(C)C(=O)Nc2nc(-c3cn4ccnc4c(Oc4cc(F)ccc4F)n3)nc(N)c21` [Example 26, 4-amino-2-[8-(2,5-difluorophenoxy)imidazo[1,2-a]pyrazin-6-yl]-5,5-dimethyl-5,7-dihydro-6H-pyrrolo[2,3-d] pyrimidin-6-one] are 105% and 718 nM.
On to `CC1(c2ccc(Cl)cc2)C(=O)Nc2nc(-c3cn4ccnc4c(Oc4cc(F)ccc4F)n3)nc(N)c21` (stereo not drawn) [Example 27A, 4-amino-5-(4-chlorophenyl)-2-[8-(2,5-difluoro-phenoxy)imidazo [1,2-a]pyrazin-6-yl]-5-methyl-5,7-dihydro-6H-pyrrolo[2,3-d] pyrimidin-6-one], for which the Emax turned out to be 128% and the EC50 turned out to be 47 nM.
On the same counts, the results for `CC1(c2ccc(Cl)cc2)C(=O)Nc2nc(-c3cn4ccnc4c(OC4CCC(F)(F)CC4)n3)nc(N)c21` (stereo not drawn) [Example 28A, 4-amino-5-(4-chlorophenyl)-2-{8-[(4,4-difluorocyclohexyl)oxy]imidazo[1,2-a]pyrazin-6-yl}-5-methyl-5,7-dihydro-6H-pyrrolo[2,3-d] pyrimidin-6-one] are 139% and 1160 nM.
Consider `CC1(c2ccc(F)cc2)C(=O)Nc2nc(-c3cn4ccnc4c(Oc4cccnc4)n3)nc(N)c21` (stereo not drawn) [Example 29A, 4-amino-5-(4-fluorophenyl)-5-methyl-2-[8-(pyridin-3-yloxy)imidazo[1,2-a]pyrazin-6-yl]-5,7-dihydro-6H-pyrrolo[2,3-d] pyrimidin-6-one], for which the Emax is 158% and the EC50 worked out at 422 nM.
In the same order, the values of `CC1(c2ccc(F)cc2)C(=O)Nc2nc(-c3cn4ccnc4c(OCC4CC(F)(F)C4)n3)nc(N)c21` (stereo not drawn) [Example 31A, 4-amino-2-{8-[(3,3-difluoro-cyclobutyl)methoxy]imidazo [1,2-a]pyrazin-6-yl}-5-(4-fluoro-phenyl)-5-methyl-5,7-dihydro-6H-pyrrolo[2,3-d] pyrimidin-6-one] are 98% and 145 nM.
